These results are taken from patent US20170305922A1, “CARM1 INHIBITORS AND USES THEREOF” (Epizyme, Inc., priority 2014, published 2017).

Assay [1] has as its target T1, Human CARM1 (PRMT4) (Homo sapiens, UniProt Q86X55).
T1 construct: Flag-CARM1-His was eluted with 200 ug/ml FLAG peptide in buffer A; made in house; host or cells: HEK 293F cells infected with recombinant baculovirus (pFastBacMam)
T1 sequence (Q86X55 1-585 isoform Q86X55-1): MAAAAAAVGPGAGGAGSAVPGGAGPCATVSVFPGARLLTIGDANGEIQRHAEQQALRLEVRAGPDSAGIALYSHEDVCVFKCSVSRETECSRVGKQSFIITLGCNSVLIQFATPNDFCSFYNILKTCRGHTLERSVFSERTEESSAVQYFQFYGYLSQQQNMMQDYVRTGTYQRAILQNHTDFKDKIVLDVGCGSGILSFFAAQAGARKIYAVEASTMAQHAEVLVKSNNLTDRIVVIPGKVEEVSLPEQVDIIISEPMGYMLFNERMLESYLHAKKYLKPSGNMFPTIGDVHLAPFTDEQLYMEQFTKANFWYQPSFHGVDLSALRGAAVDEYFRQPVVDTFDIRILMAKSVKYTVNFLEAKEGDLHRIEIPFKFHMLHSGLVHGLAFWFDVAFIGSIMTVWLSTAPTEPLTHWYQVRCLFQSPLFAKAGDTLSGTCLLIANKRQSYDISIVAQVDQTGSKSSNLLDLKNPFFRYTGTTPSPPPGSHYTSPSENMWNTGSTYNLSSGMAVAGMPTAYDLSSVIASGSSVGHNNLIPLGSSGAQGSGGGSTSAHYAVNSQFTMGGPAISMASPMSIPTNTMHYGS
In words: CARM1 enzyme assay on peptide substrates (3H-SAM Flashplate). To be noted: Biochemical assay; CARM1 0.25 nM, 3H-SAM 30 nM, peptide 250 nM; read-out: Biochem IC50.

Assay [2] deals with asymmetric di-methyl PABP1 in RKO cells. In words: RKO methylation assay: In Cell Western (ICW) for asymmetric di-methyl PABP1 (PABP1me2a). The settings on record: Cellular-based (PABP1me2a) ICW (In Cell Western) assay. The gist of the method: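 In-cell western on compound-exposed RKO cells (48 hours): asymmetric di-methyl PABP1 detected by antibody at 800 nm, DNA content by DRAQ5 at 700 nm. Percent inhibition from signal ratios against DMSO (minimum) and 20 μM reference compound (maximum) wells; IC50 curves fitted from triplicates.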

With `CNC[C@@H](O)COc1ccc(Cl)c(-c2nc(-c3c(C)noc3C)c(C)c(N3CCN(C(=O)OC)CC3)n2)c1` [Example 216], the half-maximal inhibitory concentration (IC50) (commonly the concentration that inhibits the measured activity by half) was 5.4 nM in assay [1] and 415 nM in assay [2] (Homo sapiens, RKO, 48 h).

As to `CNC[C@@H](O)COc1ccc(Cl)c(-c2nc(-c3c(C)noc3C)c(C)c(N3CC4(C3)CC(OC)(C(F)F)C4)n2)c1` [Example 217], the IC50 in assay [1] was determined as 4.7 nM; in assay [2] (Homo sapiens, RKO, 48 h), 101 nM.

Take `CNC[C@@H](O)COc1ccc(Cl)c(-c2nc(-c3c(C)noc3C)c(C)c(N3CC4(C3)CC(O)(C(F)F)C4)n2)c1` [Example 218]: the IC50 in assay [1] was found to be 6 nM; in assay [2] (Homo sapiens, RKO, 48 h) it was 419 nM.

For `CNC[C@@H](O)COc1ccc(Cl)c(-c2nc(-c3c(C)noc3C)c(C)c(N3CC4(CN(C(=O)OCC(F)(F)F)C4)C3)n2)c1` [Example 219], the IC50 is 5.5 nM in assay [1] and 129 nM in assay [2] (Homo sapiens, RKO, 48 h).

Regarding `CNC[C@@H](O)COc1ccc(Cl)c(-c2nc(-c3c(C)noc3C)c(C)c(N3CC4(CN(C(=O)OCC(F)F)C4)C3)n2)c1` [Example 220], the IC50 in assay [1] is 4.2 nM; in assay [2] (Homo sapiens, RKO, 48 h), 221 nM.

For the molecule `CNC[C@@H](O)COc1ccc(Cl)c(-c2nc(-c3c(C)noc3C)c(C)c(N3Cc4ccc(N5CCC5)nc4C3)n2)c1` [Example 221], the IC50 was 1.5 nM in assay [1] and 17 nM in assay [2] (Homo sapiens, RKO, 48 h).

Take `CNC[C@@H](O)COc1ccc(Cl)c(-c2nc(-c3c(C)noc3C)c(C)c(N3CCN(CC(F)F)CC3)n2)c1` [Example 224]: the IC50 turned out to be 6.8 nM in assay [1] and 330 nM in assay [2] (Homo sapiens, RKO, 48 h).

For the molecule `CC[C@H]1CN(c2nc(-c3cc(OC[C@H](O)CNC)ccc3Cl)nc(-c3c(C)noc3C)c2C)CCN1CC(F)F` [Example 225], the IC50 turned out to be 9.3 nM in assay [1] and 445 nM in assay [2] (Homo sapiens, RKO, 48 h).

`CCc1noc(C)c1-c1nc(-c2cc(OC[C@H](O)CNC)ccc2Cl)nc(N2Cc3cccnc3C2)c1C` [Example 226]: the IC50 in assay [1] was 4.6 nM; in assay [2] (Homo sapiens, RKO, 48 h), 134 nM.

With `CCc1onc(C)c1-c1nc(-c2cc(OC[C@H](O)CNC)ccc2Cl)nc(N2CC3(CN(CC(F)(F)F)C3)C2)c1C` [Example 227], the IC50 in assay [1] was 8 nM; in assay [2] (Homo sapiens, RKO, 48 h) it was 59 nM.

Consider `CNC[C@@H](O)COc1ccc(Cl)c(-c2nc(-c3c(C)noc3C)c(C)c(N3CC4(CC(OC(F)(F)F)C4)C3)n2)c1` [Example 228], for which the IC50 in assay [1] came to 4.7 nM; in assay [2] (Homo sapiens, RKO, 48 h) it was 73 nM.

Regarding `CNC[C@@H](O)COc1ccc(Cl)c(-c2nc(-c3c(C)noc3C)c(C)c(N3Cc4ccc(N5CC(OC)C5)nc4C3)n2)c1` [Example 229], the IC50 in assay [1] turned out to be 1.9 nM; in assay [2] (Homo sapiens, RKO, 48 h), 14 nM.

For `CCOC1CC2(C1)CN(c1nc(-c3cc(OC[C@H](O)CNC)ccc3Cl)nc(-c3c(C)noc3C)c1C)C2` [Example 231], the half-inhibitory concentration (IC50) in assay [1] was 4.6 nM; in assay [2] (Homo sapiens, RKO, 48 h), 41 nM.

Turning to `CNC[C@@H](O)COc1ccc(Cl)c(-c2nc(-c3c(C)noc3C)c(C)c(N3CCN(C(=O)OCC(F)F)CC3)n2)c1` [Example 232], the IC50 in assay [1] is 4.9 nM; in assay [2] (Homo sapiens, RKO, 48 h) it was 348 nM.

Turning to `CNC[C@@H](O)COc1ccc(Cl)c(-c2nc(-c3c(C)c(Cl)nn3C)c(C)c(N3CC4(CN(CC(F)(F)F)C4)C3)n2)c1` [Example 233], the IC50 is 4.3 nM in assay [1] and 29 nM in assay [2] (Homo sapiens, RKO, 48 h).

For `CNC[C@@H](O)COc1ccc(Cl)c(-c2nc(-c3c(C)noc3C)c(C)c(N3CC4(CCC(OC(F)(F)F)CC4)C3)n2)c1` [Example 234], the IC50 in assay [1] is 6.1 nM; in assay [2] (Homo sapiens, RKO, 48 h), 105 nM.

Regarding `CNC[C@@H](O)COc1ccc(Cl)c(-c2nc(-c3c(C)noc3C)c(C)c(N3Cc4nccc(OCC(F)F)c4C3)n2)c1` [Example 235], the IC50 in assay [1] was 0.7 nM; in assay [2] (Homo sapiens, RKO, 48 h), 54 nM.

For the molecule `CNC[C@@H](O)COc1ccc(Cl)c(-c2nc(-c3c(C)noc3C)c(C)c(N3Cc4nccc(OC)c4C3)n2)c1` [Example 236], the IC50 in assay [1] was 1.8 nM; in assay [2] (Homo sapiens, RKO, 48 h), 63 nM.

Regarding `CNC[C@@H](O)COc1ccc(Cl)c(-c2nc(-c3c(C)noc3C)c(C)c(N3CC4=C(CN(C)CC4)C3)n2)c1` [Example 237], the IC50 in assay [1] was determined as 0.6 nM; in assay [2] (Homo sapiens, RKO, 48 h), 157 nM.

Turning to `CNC[C@@H](O)COc1ccc(Cl)c(-c2nc(-c3c(C)c(Br)nn3C)c(C)c(N3CC4(CC(OC(F)(F)F)C4)C3)n2)c1` [Example 238], the IC50 is 5 nM in assay [1] and 116 nM in assay [2] (Homo sapiens, RKO, 48 h).

As for `CNC[C@@H](O)COc1ccc(Cl)c(-c2nc(-c3c(C)noc3C)c(C)c(N3CC4(CC(OC(=O)OC)C4)C3)n2)c1` [Example 239], the IC50 in assay [1] came to 4.7 nM; in assay [2] (Homo sapiens, RKO, 48 h) it was 52 nM.

For `CNC[C@@H](O)COc1ccc(Cl)c(-c2nc(-c3c(C)noc3C)c(C)c(N3CC(C)(C#N)C3)n2)c1` [Example 240], the IC50 is 4.1 nM in assay [1] and 398 nM in assay [2] (Homo sapiens, RKO, 48 h).

As for `CNC[C@@H](O)COc1ccc(Cl)c(-c2nc(-c3c(C)noc3C)c(C)c(N3CC4(CC(OCCOC)C4)C3)n2)c1` [Example 241], the IC50 came to 6.2 nM in assay [1] and 84 nM in assay [2] (Homo sapiens, RKO, 48 h).

In the case of `CNC[C@@H](O)COc1ccc(Cl)c(-c2nc(-c3c(Br)cnn3C)c(C)c(N3Cc4ccc(N5CCC5)nc4C3)n2)c1` [Example 243], the IC50 turned out to be 0.8 nM in assay [1] and 37 nM in assay [2] (Homo sapiens, RKO, 48 h).

For the molecule `CNC[C@@H](O)COc1ccc(Cl)c(-c2nc(-c3c(I)cnn3C)c(C)c(N3Cc4cccnc4C3)n2)c1` [Example 244], the IC50 was determined as 1.2 nM in assay [1] and 141 nM in assay [2] (Homo sapiens, RKO, 48 h).

For `CCOc1ccc2c(n1)CN(c1nc(-c3cc(OC[C@H](O)CNC)ccc3Cl)nc(-c3c(C)noc3C)c1C)C2` [Example 245], the IC50 in assay [1] was 2 nM; in assay [2] (Homo sapiens, RKO, 48 h) it was 38 nM.

Take `CNC[C@@H](O)COc1ccc(Cl)c(-c2nc(-c3c(C)noc3C)c(C)c(N3CC4(CC(O)C4)C3)n2)c1` [Example 246]: the IC50 in assay [1] came to 6.7 nM; in assay [2] (Homo sapiens, RKO, 48 h) it was 352 nM.

For `CNC[C@@H](O)COc1ccc(Cl)c(-c2nc(-c3c(C)noc3C)c(C)c(N3CC4=C(CN(CC(F)(F)F)CC4)C3)n2)c1` [Example 247], the IC50 in assay [1] turned out to be 4 nM; in assay [2] (Homo sapiens, RKO, 48 h) it was 62 nM.

`CNC[C@@H](O)COc1ccc(Cl)c(-c2nc(-c3c(C)noc3C)c(C)c(N3Cc4ccc(OCCOC)nc4C3)n2)c1` [Example 249]: the IC50 stood at 2 nM in assay [1] and 27 nM in assay [2] (Homo sapiens, RKO, 48 h).

Regarding `CNC[C@@H](O)COc1ccc(Cl)c(-c2nc(-c3c(C)noc3C)c(C)c(N3CC4(CCC4(F)F)C3)n2)c1` [Example 250], the IC50 in assay [1] turned out to be 3.94 nM; in assay [2] (Homo sapiens, RKO, 48 h), 217 nM.

As for `CNC[C@@H](O)COc1ccc(Cl)c(-c2nc(-c3c(C)noc3C)c(C)c(N3CC(C)(COC)C3)n2)c1` [Example 251], the IC50 in assay [1] came to 6.51 nM; in assay [2] (Homo sapiens, RKO, 48 h) it was 193 nM.

As to `CNC[C@@H](O)COc1ccc(Cl)c(-c2nc(-c3c(C)noc3C)c(C)c(N3CC(C)(CO)C3)n2)c1` [Example 252], the IC50 in assay [1] is 8.01 nM; in assay [2] (Homo sapiens, RKO, 48 h), 561 nM.

In the case of `CNC[C@@H](O)COc1ccc(Cl)c(-c2nc(-c3c(C)noc3C)c(C)c(N3Cc4ccc(O[C@@H]5CCOC5)nc4C3)n2)c1` [Example 253], the IC50 in assay [1] is 2.36 nM; in assay [2] (Homo sapiens, RKO, 48 h), 29.2 nM.

`CNC[C@@H](O)COc1ccc(Cl)c(-c2nc(-c3c(C)noc3C)c(C)c(N3Cc4ccc(O[C@H]5CCOC5)nc4C3)n2)c1` [Example 254]: the IC50 in assay [1] is 2.39 nM; in assay [2] (Homo sapiens, RKO, 48 h), 37.1 nM.

`CNC[C@@H](O)COc1ccc(Cl)c(-c2nc(-c3c(C)noc3C)c(C)c(N3CC4(CN(C(=O)OCCOC)C4)C3)n2)c1` [Example 255]: the IC50 is 7.22 nM in assay [1] and 377 nM in assay [2] (Homo sapiens, RKO, 48 h).

For the molecule `CNC[C@@H](O)COc1ccc(Cl)c(-c2nc(-c3c(C)c(Br)nn3C)c(C)c(N3CC4(CC(OC)C4)C3)n2)c1` [Example 256], the IC50 stood at 3.96 nM in assay [1] and 43.2 nM in assay [2] (Homo sapiens, RKO, 48 h).

In the case of `CNC[C@@H](O)COc1ccc(Cl)c(-c2nc(-c3c(C)noc3C)c(C)c(N3CC4=C(CN(C(=O)OC)CC4)C3)n2)c1` [Example 257], the IC50 in assay [1] came to 2.4 nM; in assay [2] (Homo sapiens, RKO, 48 h), 22.7 nM.

As to `CNC[C@@H](O)COc1ccc(Cl)c(-c2nc(-c3c(C)noc3C)c(C)c(N3Cc4ccc(N(C)C)nc4C3)n2)c1` [Example 258], the IC50 is 1.83 nM in assay [1] and 29.9 nM in assay [2] (Homo sapiens, RKO, 48 h).

Regarding `CNC[C@@H](O)COc1ccc(Cl)c(-c2nc(-c3c(C)noc3C)c(C)c(N3Cc4ccc(N5CC(F)C5)nc4C3)n2)c1` [Example 259], the IC50 stood at 2.17 nM in assay [1] and 22.9 nM in assay [2] (Homo sapiens, RKO, 48 h).

Take `CNC[C@@H](O)COc1ccc(Cl)c(-c2nc(-c3c(C)noc3C)c(C)c(N3CC4(CC(OC(C)C)C4)C3)n2)c1` [Example 260]: the values for the IC50 in assay [1] and in assay [2] (48 hours) were 5.95 nM and 45.5 nM, respectively.

Turning to `CNC[C@@H](O)COc1ccc(Cl)c(-c2nc(-c3c(C)noc3C)c(C)c(N3Cc4cccnc4C3)n2)c1` [Example 262], the IC50 in assay [1] was 2.34 nM; in assay [2] (Homo sapiens, RKO, 48 h), 32.6 nM.
